US20150313913A1, “POSITIVE ALLOSTERIC MODULATORS OF THE GABA-A RECEPTOR IN THE TREATMENT OF AUTISM” (UNIVERSITY OF WASHINGTON THROUGH ITS CENTER FOR …, priority 2013, published 2015)
Entries after “also recorded” stand apart in the source; their conditions may differ.

Key:
C57BL/6J mice [1] = test: Three-chamber social interaction test; format: in vivo
Source text: The mouse was allowed to freely explore each chamber.

[2] = tested on: mouse genetic models of human Dravet syndrome and idiopathic autism; test: Summary: low-dose treatment of mouse models of autism; format: in vivo, mice; details: low doses that do not induce sedative or anxiolytic effects
Source text: The present disclosure describes methods effective in the rescue or amelioration of autism-like behavior, cognitive deficit, and context-dependent spatial memory.
In particular embodiments, these methods comprise the administration of low doses of a benzodiazepine to a human or other mammalian subject in order to rescue autism-like behavior, cognitive deficit, and context-dependent spatial memory. […] At such low doses, the administration of benzodiazepines, such as CLZ, to mammalian subjects will result in improvement of autism-like behavior, cognitive deficit, and context-dependent spatial learning and memory with much lower levels of sedation compared to mammalian subjects who receive typical higher doses of CLZ or other benzodiazepines that are used for treatment of anxiety, insomnia, or seizure.
The present disclosure is also directed to methods of rescuing or ameliorating indicia of Autism Spectrum disorders, autism-like behavior, cognitive deficit, and context-dependent spatial learning and memory in Dravet syndrome or idiopathic autism with α-2,3-specific GABA-A receptor positive allosteric modifiers. Such α-2,3-subunit selective GABA-A receptor positive allosteric modifiers include L838,417.
Therapeutic approaches to treat autistic traits in animal studies or in clinical trials have primarily focused on reducing excitatory neurotransmission in glutamatergic synapses to rebalance E/I ratio in autistic brain (Michalon et al., 2012; Yang et al., 2012). However, autistic-like behaviors in ASD mouse models are only partially reversed by drugs that inhibit excitatory neurotransmission, and these drugs also have unwanted side effects on wild-type mice (Henderson et al., 2012; Michalon et al., 2012; Yang et al., 2012). To overcome these drawbacks, the inventors focused on the opposing side, the GABAergic inhibitory transmission in autistic brain. Their results highlight the potential for therapy of autistic-like behaviors and cognitive deficit in ASD by low-dose treatment with subunit-selective benzodiazepines and other positive allosteric modulators of GABA-A receptors. […] It is possible that the biphasic dose-response relationship of the positive allosteric modulators reflects their actions on receptors containing α2,3 subunits at low doses and on receptors containing α1 subunits at higher doses.

BTBR mice [3] = test: Three-chamber social interaction test; details: for social interaction (time with stranger mouse, close interaction), dose series: single i.p. injection 30 min before test, low/increasing doses
Description: In the three-chamber test, a test mouse is placed in the center chamber, and the preference of the test mouse for interaction with an inanimate object (a small empty cage) in the left chamber vs. a stranger mouse in an identical cage in the right chamber using a digital camera and quantitative video-tracking analysis.
(§1) The test was performed as described previously (Han et al., 2012) with minor modifications. The threechamber apparatus is a non-transparent Plexiglas box (30×60 cm) with two transparent partitions that make left, center, and right chambers (30×20 cm). In the first 10-min session, a test mouse was placed in the center of the empty three-chamber unit to habituate the test mouse. The mouse was allowed to freely explore each chamber. In the second 10-min session, an age- and gender-matched same strain mouse that had never been exposed to the test mouse, was placed in one of the two wire cages. The empty wire cage as an inanimate object cue was placed on the other side. Then, the test mouse was placed again in the center, and allowed to freely explore the chamber for 10 min. Time spent in each chamber, and time spent within a 5 cm radius proximal to each wire cage, as a close interaction were measured by the videotracking software (EthoVision XT 8.5, Noldus Technology). All data shown are means±s.e.m. and analyzed using two-way ANOVA with Bonferroni's post hoc analysis and one-way ANOVA with Tukey's post hoc analysis.
(§2) L-838,417, and DMCM (Sigma), dissolved in 100% DMSO (sterile, Sigma) was diluted in PBS (the final concentration of DMSO was ranged from 0.005% to 0.1%). Drugs were administered by an intraperitoneal injection in a volume of […] 30 min before the behavioral tests.

BTBR mice [4] = test: Open field test; format: in vivo; details: clobazam 0.05 mg/kg
Description: (§3) Open field test was performed as previously described (Han et al., 2012). 50×50 cm square open field arena with non-transparent white Plexiglas was used in this study. During the 10 min of trial, total distance moved, circling behavior (a complete 360-degree turn of nose angle with respect to the body center) and time in center (20×20 cm imaginary square) were measured by the video-tracking software (EthoVision XT 8.5, Noldus Technology).

GABA-A receptor = details: Table 1, exemplary benzodiazepines; cited from earlier work
[5] = Table 1, values marked *; cited from earlier work
C57BL/6J mice [6] = test: Open field test; format: in vivo; details: 0.2 mg/kg
Description: as §3

C57BL/6J mice [7] = test: Elevated plus maze test; format: in vivo; details: 0.2 mg/kg
Description: The test was performed as previously described (Han et al., 2012). The maze used in this study has two closed arms (5.1×30 cm) surrounded by 20-cm high non-transparent walls and two open arms (5.1×30 cm). During the 10 min of trial, times spent in closed, center, and open arms, and total distance traveled during the trial were measured by the video-tracking software (EthoVision XT 8.5, Noldus Technology).

[8] = in vivo; cited from earlier work
BTBR mice [9] = test: Context-dependent fear conditioning test; format: in vivo; details: 0.05 mg/kg
Source text: The contextual fear-conditioning chamber was a square arena (25×25 cm) with clear PLEXIGLAS™ walls and a metal grid floor connected to a circuit board that delivered shocks to the metal grid (COULBOURN INSTRUMENTS™). An analog camera was attached on top of the chamber. The camera and the circuit board were connected to a personal computer, and its software (FREEZE FRAME™ 2.0, ACTIMETRICS™) controlled the circuit and recorded the data. The chamber was cleaned with 70% ethanol and wiped with paper towels before each session. In the habituation session, a test mouse was placed in the chamber and allowed to explore for 2 min^66-69. Immediately after habituation, the test mouse received a single mild foot shock (2 s, 0.5 mA). After staying in the chamber one more min, the mouse was removed from the chamber. For the 30-min short-term memory test, the mouse was returned to the context 30 min after the end of the training session. For 24-hr long-term memory test, the mouse was returned to the context 24 hr after the training session. The movement of mice was also recorded by a USB webcam (LIFECAM™ HD-6000, MICROSOFT™) and PC-based video capture software (WINAVI™ Video Capture, ZJ MEDIA DIGITAL TECHNOLOGY™) for 2 min. The recorded video file was further analyzed by off-line video tracking software (ETHOVISION™ XT 7.0, NOLDUS TECHNOLOGY™). The freezing scores were calculated by dividing the test session into 1 min bouts and averaging together all 2 min for each animal. All data shown.
Freezing behavior is defined as the period during which the velocity of the test mouse is less than 1.75 cm/s, and non-freezing behavior is defined as the period during which the velocity of the mouse is greater than 2 cm/s.

Scn1a+/− mice = test: Three-chamber social preference test; format: in vivo; details: low doses, narrow dose range (FIGS. 41N, 41O)
Source text: The mouse was allowed to freely explore each chamber. […] The recorded video file was further analyzed by off-line video tracking software (ETHOVISION™ XT 7.0). […] All data shown are means±s.e.m. and analyzed using two-way ANOVA with Bonferroni's post hoc analysis and one-way ANOVA with Tukey's post hoc analysis.
Oral administration is specifically contemplated for the methods described herein, and is well known for both benzodiazepines and non-BDZ GABA-A enhancers as described herein.
as §1, §2

## CN1C(=O)CC(=O)N(c2ccccc2)c2cc(Cl)ccc21 [Clobazam]
C57BL/6J mice [1]; clobazam, FIG. 9
  social interaction of control mice: no effect
[2]
  autistic-like behaviors and cognitive deficit in BTBR mice (summary): improved
BTBR mice [3]; 0.05 mg/kg (low dose) 30 min before test
  social interaction deficit: ameliorated social interaction deficits
BTBR mice [3]; FIG. 9
  time in the chamber with the stranger mouse: increased
  time of interaction with the stranger mouse: increased
BTBR mice [3]
  social interaction (time with stranger mouse, close interaction), dose series: increases
BTBR mice [4]
  anxiolytic effect (time spent in center): without sedative (FIG. 41C) or anxiolytic effects
  sedative effect (total distance moved): without sedative
GABA-A receptor
  Effect at GABA-A receptor: Agonist
[5]
  Dose in humans for anti-anxiety, anti-convulsive, or sedative effects: equivalent dose to 10 mg diazepam: 20 mg

## CCc1c(C(=O)OC)ncc2[nH]c3cc(OC)c(OC)cc3c12 [DMCM]
C57BL/6J mice [1]; 0.2 mg/kg single injection 30 min prior
  normal social interaction behavior: impaired; also recorded: substantially reduced
C57BL/6J mice [6]
  general locomotor behavior (distance moved): not altered
  time spent in center: unaltered
C57BL/6J mice [7]
  anxiety levels (time in the open arms): not altered
  number of entries in the open arms: unchanged

## Cc1nnc2n1-c1ccc(Cl)cc1C(c1ccccc1Cl)=NC2 [Triazolam]
GABA-A receptor
  Effect at GABA-A receptor: Agonist
[5]
  Dose in humans for anti-anxiety, anti-convulsive, or sedative effects: equivalent dose to 10 mg diazepam: 0.25 mg
[8]
  half-life: 2 to 3 h

## Cc1ccc(-c2nc3ccc(C)cn3c2CC(=O)N(C)C)cc1 [zolpidem]
C57BL/6J mice [1]; L-838,417 / zolpidem (FIGS. 45I, 45J)
  social behavior, dose series: dose-dependently impaired
C57BL/6J mice [1]; high dose
  social behavior at high dose: impaired
[2]
  autistic-like behaviors and cognitive deficit in BTBR mice (summary): opposite effects
BTBR mice [3]; 0.5 mg/kg
  social behavior (close interaction): made social behavior worse
BTBR mice [3]; dose range up to 0.5 mg/kg (clonazepam: test doses)
  sedation / total distance moved during the three-chamber test: dose-dependently decreased
BTBR mice [3]; high doses, zolpidem 0.5 mg/kg
  total movement during the three-chamber test at high dose: significantly decreased
BTBR mice [3]; higher doses
  effect on social interaction at doses above the maximally effective dose: aggravated their social interaction deficit at high doses
BTBR mice [3]
  social interaction (time with stranger mouse, close interaction), dose series: failed to show beneficial effects
BTBR mice [3]; listed as Zolpidem
  social interaction (time with stranger mouse, close interaction), dose series: failed to rescue social deficit
BTBR mice [9]
  long-term (24 h) memory: not long-term memory
  short-term (30 min) memory: enhanced short-term memory
Scn1a+/− mice
  social interactions in three-chamber test: not effective
